Assay results taken from patent US20250144047A1, “PHARMACEUTICAL COMPOSITION FOR PREVENTING, AMELIORATING, OR TREATING CANCER CONTAINING 8-PARADOL” (KDBIO CORP., priority 2022, published 2025).
One block for each molecule: values may come before it.

Tests used:
[1] = system: AGS cells; settings: for IC50: read-out: IC50 on AGS cells, 24 hours, MTT assay; for IC50 / dose at which significant toxicity to AGS cells was not exhibited: AGS cells; for dose at which significant toxicity to AGS cells was not exhibited: MTT
Description: AGS cells were grown in RPMI medium containing 10% FBS and 1% PS. HEK293 and RAW264.7 cells were grown in DMEM medium containing 10% FBS and 1% PS under conditions of 37° C., 5% CO2 and 95% air.
In order to evaluate toxicity to each cell, the sample was incubated in each cell (1×10^5 cells/well) cultured in the above manner for 24 hours, and then cytotoxicity to each cell was examined by using the MTT assay.

[2] = system: AGS xenograft tumor tissue; assay: IHC staining of tumor tissue; assay type: in vivo; settings: tumor tissue of administered mice
Description: The tumor tissue was fixed with 10% formalin and embedded with paraffin. Immunohistochemical (IHC) staining was performed using a mouse and rabbit-specific HRP/DAB (ABC) detection IHC kit (Abcam, Cambridge, MA, USA). The tissue was observed through an optical microscope, and the presence of a specific protein in the tumor tissue was determined to be the presence of a brown yellow color. The results were evaluated using ImageJ software.

[3] = set-up: species or system mice; settings: mouse, in vivo, po, 5 mg/kg
Description: Male nude mice (CAnN.Cg-Foxn1-nu, 4 weeks old, 20 g to 22 g) were purchased from OrientBio (Seongnam, Republic of Korea). The mice were placed in a chamber with conditions maintained at 23° C. and 50% humidity with a period of 12 hours of light and 12 hours of darkness. All animal experiments were conducted according to the National Institutes of Health's Laboratory Animal Care and Use Guidelines (NIH Publications No. 8023, revised 1996) and the Kyung Hee University's Animal Care and Use Guidelines ([…]-441, approval data: Sep. 28, 2021). […] The control group was administered with only 0.9% of general saline during this period. Body weights and tumor volumes of the mice were measured daily in all mice during the study period. All mice were euthanized after the end of the experiments. Blood, liver, spleen, kidney, and tumor tissues were extracted and weighed. In order to obtain the protein of tumor tissue, a portion of the tissue was processed with RIPA buffer containing a protease inhibitor cocktail. Then, the expression degree of a specific protein (determined by Western blot) was determined. […] Fuji Dri-Chem analyzer (3500, Fuji Photo Film Co., Osaka, Japan) was used to measure alanine aminotransferase (ALT), aspartate aminotransferase (AST), total bilirumin (T-Bili), total protein (TP), albumin (Alb), albumin/globulin (A/G) ratio, total cholesterol (T-Chol), total triglyceride (TG), glucose (GLU), and blood urea nitrogen (BUN) values.

[4] = system: AGS xenograft tumor tissue; assay: Western blot of tumor tissue of xenograft mice; assay type: in vivo; settings: tumor tissue, oral 5 mg/kg, compared to control group
Description: For whole protein extraction, AGS cells were processed with samples at various concentrations for 24 hours. The cells were dissolved using Pierce™ RIPA buffer (Thermo Fisher Scientific, Rockford, IL, USA) together with protease inhibitor cocktail (GenDEPOT, TX, USA). The cell-dissolved solution formed in the above manner was centrifuged at 12,000 rpm for 20 minutes. The protein was loaded into a 10% SDS-PAGE gel using a protein gel electrophoresis chamber system and transferred to a PVDF membrane (Thermo Fisher Scientific, Rockford, IL, USA). A PBST solution containing 5% skim milk was used to block the membrane at 25° C. for 1 hour. Then, the membrane was incubated overnight at 4° C. with primary antibodies. Finally, the membrane was incubated with the secondary antibodies at 25° C. for 1 hour, and a protein band was detected using West-Q Pico ECL Solution (GenDEPOT, TX, USA). The results were quantified using ImageJ software.
Each mouse was orally administered with 8-paradol and 5-FU once a day for a total of 16 days. The control group was administered with only 0.9% of general saline during this period. Body weights and tumor volumes of the mice were measured daily in all mice during the study period. All mice were euthanized after the end of the experiments. Blood, liver, spleen, kidney, and tumor tissues were extracted and weighed. In order to obtain the protein of tumor tissue, a portion of the tissue was processed with RIPA buffer containing a protease inhibitor cocktail. Then, the expression degree of a specific protein (determined by Western blot) was determined.

SMILES: CCCCCCCCC/C=C/C(=O)CCc1ccc(O)c(OC)c1 [Purified Compound 8, 10-shogaol]
IC50 [1]: 64.5 ± 1.98 µM

SMILES: CCCCC[C@H](O)CC(=O)CCc1ccc(O)c(OC)c1 [Purified Compound 2, 6-gingerol]
IC50 [1]: 178 ± 2.51 µM

SMILES: CO[C@H]1C[C@@H]2CC[C@@H](C)[C@@](O)(O2)C(=O)C(=O)N2CCCC[C@H]2C(=O)O[C@H]([C@H](C)C[C@@H]2CC[C@@H](O)[C@H](OC)C2)CC(=O)[C@H](C)/C=C(\C)[C@@H](O)[C@@H](OC)C(=O)[C@H](C)C[C@H](C)/C=C/C=C/C=C/1C [rapamycin, reference compound]
dose at which significant toxicity to AGS cells was not exhibited [1]: less than 6 μM

SMILES: O=c1[nH]cc(F)c(=O)[nH]1 [5-FU, 5-fluorouracil]
density of LC3 and caspase-3 in tumor tissue [2]: increased
cytotoxicity to AGS cells [1]: strong toxicity
A/G (albumin/globulin) [3]: 0.52 ratio
ALT (alanine aminotransferase) [3]: 101.6 U/L
AST (aspartate aminotransferase) [3]: 204.9 U/L
Alb (albumin) [3]: 1.7 g/dL
BUN (blood urea nitrogen) [3]: 26.7 mg/dL
Crea (creatinine) [3]: 0.34 mg/dL
GLU (glucose) [3]: 56 mg/dL
T-Bili (total bilirubin) [3]: 0.08 mg/dL
T-Chol (total cholesterol) [3]: 124 mg/dL
TG (triglyceride) [3]: 34 mg/dL
TP (total protein) [3]: 5.1 g/dL
protein expressions of LC3, Pink1, Parkin, Bax, Cytochrome-c, cleaved-caspase-3/caspase-3, Cleaved-caspase-9/caspase-9, p62 and Bcl-2 [4]: lower

SMILES: N#CC(C#N)=NNc1cccc(Cl)c1 [CCCP, carbonyl cyanide m-chlorophenylhydrazone, reference compound]
dose at which significant toxicity to AGS cells was not exhibited [1]: less than 15 μM

Next, values leading:

IC50 [1]: 32.9 ± 2.26 µM
SMILES: CCCCC/C=C/C(=O)CCc1ccc(O)c(OC)c1 [Purified Compound 6, 6-shogaol]

IC50 [1]: 33.2 ± 1.21 µM
SMILES: CCCCCCC[C@H](O)CC(=O)CCc1ccc(O)c(OC)c1 [Purified Compound 4, 8-gingerol]

IC50 [1]: 25.7 ± 1.87 µM
SMILES: CCCCCCCC(=O)CCc1ccc(O)c(OC)c1 [Purified Compound 1, 6-paradol]

IC50 [1]: 16.1 ± 2.32 µM
SMILES: CCCCCCCCC[C@H](O)CC(=O)CCc1ccc(O)c(OC)c1 [Purified Compound 5, 10-gingerol]

IC50 [1]: 45.6 ± 3.6 µM
SMILES: CCCCCCC/C=C/C(=O)CCc1ccc(O)c(OC)c1 [Purified Compound 7, 8-shogaol]
